Experimental data taken from patent US9512140B2, “(Thieno[2,3-b][1,5]benzoxazepin-4-yl)piperazin-1-yl compounds as dual activity H1 inverse agonists/5-HT2A antagonists” (priority 2011, dated 2016).
Structures can show the parent of a compound that is named as a salt.

How the values were obtained:
Plasma clearance, rat = assay type: in vivo; details: male, Sprague Dawley, 1 mg/kg, intravenous, 1 mL/kg of 1.0 mg/mL
Method: Male Sprague Dawley rats (body weight range 250-320 g) with indwelling femoral arterial cannulae are obtained from Charles River, Wilmington, Mass. 01887, USA. Test compound is administered intravenously in solution (1 mL/kg) in 20% Captisol® in 22.5 mM phosphate buffer, pH 2, at a final drug concentration of 1.0 mg/mL (free base equivalents). Blood samples are obtained using the indwelling cannula over 24 hr. Samples of plasma are obtained by centrifugation and stored frozen (−20° C.), or on dry ice, prior to analysis. Frozen plasma samples are thawed to room temperature for bioanalysis of concentrations of test compound. A related internal standard compound in acetonitrile/methanol (1:1, v/v) is added to all samples of plasma (1:1, v/v). The samples are centrifuged to remove precipitated protein prior to analysis. The supernatants are analysed by injection and rapid gradient elution on a Javelin Betasil C18 column (20×2.1 mm cartridge, Mobile phase A: Water/1 M NH4HCO3, 2000:10 v/v, Mobile Phase B: MeOH/1 M NH4HCO3, 2000:10 v/v). The eluted analytes are detected by LC-MS-MS analysis using a Sciex API 4000 triple quadrupole mass spectrometer. Concentrations of compound are determined from standards prepared and analysed under identical conditions. Clearance is calculated using non-compartmental analysis in Watson 7.4, Thermo Fisher Scientific, Inc.

5-HT2A Receptor = target: T1, 5-HT2A Receptor (Rattus norvegicus, UniProt P14842); experiment: 5-HT2A receptor occupancy (MDL 100907 tracer); assay type: in vivo; details: oral gavage, RO 1 hr. after dosing
T1 construct: from tissue; host or cells: rat brain (frontal cortex against cerebellum), in vivo
Method: Briefly, male Sprague-Dawley rats (Harlan Sprague-Dawley, Indianapolis, Ind.) weighing approximately 230-280 grams are given ad lib access to food and water until the beginning of the 3-hr. experimental protocol. 1 mg/kg ketanserin (non-selective 5-HT2A antagonist) is used as a positive control to establish assay validity. Test compounds or control are administered by oral gavage in a vehicle comprised of 20% hydroxypropyl beta-cyclodextrin. MDL 100907 ((R)-(+)-α-(2,3-Dimethoxyphenyl)-1-[2-(4-fluorophenyl)ethyl]-4-piperidinemethanol), a selective 5-HT2A antagonist, is used as a tracer. […] It is at the time of tracer administration that RO is considered to be measured. […] The level of MDL 100907 tracer is measured in each cortical and cerebellar sample. RO is calculated using the well-established ratio method which employs a region of high receptor density representative of total binding (frontal cortex) normalized by an area without or with very low levels of receptor (cerebellum). […]
Cortex and cerebellar samples are weighed and placed in conical centrifuge tubes on ice. […] Standards are prepared by adding known quantities of analyte to brain tissue samples from non-treated rats and processing as described above. […]

Dopamine D3 = Dopamine D3 (Homo sapiens, UniProt P35462); experiment: Dopamine D3 binding
Excerpt: Further, the compounds of the invention may be tested in binding assays and functional activity assays by well known methods for other physiologically important receptors such as, but not limited to, the hERO channel, other serotonin receptors (specifically 5-HT1B, 5-HT1D, receptors, lack of agonist activity at 5-HT2B receptors, 5-HT2C, 5-HT5, 5-HT6, and 5-HT7 receptors), dopaminergic receptors (specifically D1, D2, and D3), GABAA receptors, adrenergic receptors and monoamine transporters.

Sequence of Dopamine D3 (P35462 whole entry): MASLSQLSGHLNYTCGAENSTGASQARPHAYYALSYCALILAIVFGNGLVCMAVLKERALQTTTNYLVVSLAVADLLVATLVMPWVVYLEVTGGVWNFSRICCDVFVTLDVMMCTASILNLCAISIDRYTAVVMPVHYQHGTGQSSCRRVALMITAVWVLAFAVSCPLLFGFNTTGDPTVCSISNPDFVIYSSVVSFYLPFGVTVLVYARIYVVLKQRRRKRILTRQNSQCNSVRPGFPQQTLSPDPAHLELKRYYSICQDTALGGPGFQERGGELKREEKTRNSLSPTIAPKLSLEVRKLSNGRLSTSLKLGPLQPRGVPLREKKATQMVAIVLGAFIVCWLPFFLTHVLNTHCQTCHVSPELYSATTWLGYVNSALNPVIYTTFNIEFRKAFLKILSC
T1 sequence (P14842 whole entry): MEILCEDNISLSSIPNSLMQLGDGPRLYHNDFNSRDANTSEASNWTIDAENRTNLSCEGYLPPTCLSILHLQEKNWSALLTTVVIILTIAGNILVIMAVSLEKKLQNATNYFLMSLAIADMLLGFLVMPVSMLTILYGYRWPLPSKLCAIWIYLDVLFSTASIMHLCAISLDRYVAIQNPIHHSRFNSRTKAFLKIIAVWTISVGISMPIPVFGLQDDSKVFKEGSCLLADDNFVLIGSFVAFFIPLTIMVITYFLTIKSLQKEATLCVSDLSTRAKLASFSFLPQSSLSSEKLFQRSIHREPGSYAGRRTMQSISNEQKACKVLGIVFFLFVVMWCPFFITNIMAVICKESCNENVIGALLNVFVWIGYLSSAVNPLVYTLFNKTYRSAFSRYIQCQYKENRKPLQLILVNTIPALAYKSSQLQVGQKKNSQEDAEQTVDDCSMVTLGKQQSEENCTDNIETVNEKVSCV

Which clearance (Plasma clearance, rat) does the source give for `Cc1ccc2c(c1)Oc1sc(C)cc1C(N1CCN(CC(C)(C)C(=O)O)CC1)=N2` [Example 2, 3-[4-(2,8-Dimethylthieno[2,3-b][1,5]benzoxazepin-4-yl)piperazin-1-yl]-2,2-dimethyl-propanoic acid dihydrochloride] here?
Its clearance is 27 mL/min/kg.

And the ED50 (5-HT2A Receptor)?
Its ED50 is 0.09 mg/kg.

What about the Ki (Dopamine D3) of the same molecule?
The Ki was > 5.66 µM.
